In patent US20090169490A1, “COMPOSITION AND METHOD FOR WEIGHT LOSS” (Guangzhou Konzern Pharmaceutical Co., Ltd, priority 2007, published 2009):

Tests used:
[1] = test system: Diet-Induced Obesity Rat Model; assay: Weight loss experiments in diet-induced obesity rat model; assay type: in vivo; settings: for difference to control group E (weight loss effect): SPSS12.0 analysis, p<0.01, versus control group E on normal feed; for average weight variation (g) after / average weight variation (g) before: obese male rats; for average weight variation (g) before: n=10 per group
Excerpt: Male weaned rats (each weighs 50 g) divided into 5 groups with each group 10 rats.
The rats are orally administrated L-carnitine tartrate (Group A), L-hydroxy citric acid (Group B), L-carnitine tartrate and L-hydroxy citric acid (Group C), L-carnitine tartrate and L-hydroxy citric acid and asiaticosides (Group D), respectively. For comparison, a control group E is also set herewith. The oral administration dosage is 5 times that for human (kg/day). The rats are fed with feed comprising one of the active components set forth above for continuous 30 days.
Feed preparation: the feed comprises (a) basic feed consisting of 20 wt % of barley meal, 10 wt % of dehydrated vegetables, 20 wt % of pulse flour, 1 wt % of yeast, 5 wt % of bone dust, 16 wt % of cornmeal, 16 wt % of wheat skin, 10 wt % of fish meal and 2 wt % of salt, and (b) nutritive feed selected from the group consisting of powdered milk, lard, egg and soybean sprout. 10 g of powdered milk, 10 g of lard, one egg and 250 g of soybean sprout are added per 100 g of basic feed.
In the first and second week, each rat is fed 13 g of feed per day, with an increase in the amount of the feed of 2 g every week until the sixth week ([…]). The rats are fed twice a day. After the rats are fed with the high-fat, high-nutrition feed above for 45 days, the weight of the rat fed with such feed is nearly two times that of the rat in the control group fed with normal feed (the difference may be more than 100 g).
After the establishment of the rat model, rats in different groups are orally administrated L-carnitine tartrate (Group A), L-hydroxy citric acid (Group B), L-carnitine tartrate and L-hydroxy citric acid (Group C), L-carnitine tartrate and L-hydroxy citric acid and asiaticosides (Group D). The components are blended in the feed. No additional component is added to the normal feed fed the control group.
The experiment data is analyzed by software SPSS12.0 edition, and the result are shown as below: […]

[2] = cited from earlier work
[3] = cited from earlier work; remark: listed apart in the source
[4] = after minus before, 30 days oral administration in feed, dosage 5 times that for human
[5] = fat pad around testicle and kidney, after 30 days oral administration in feed, dosage 5 times that for human
[6] = fat pad around testicle and kidney, after minus before, 30 days oral administration in feed
[7] = fat pad around testicle and kidney, before the 30 days of oral administration in feed (baseline)
[8] = after 30 days oral administration in feed, dosage 5 times that for human
[9] = before the 30 days of oral administration in feed (baseline)

Row | Compound | difference to control group E (weight loss effect) [1] | average weight variation (g) variation [1, 4] | average fat pad weight [1, 5] | average fat pad weight [1, 6] | average fat pad weight [1, 7] | average weight variation (g) after [1, 8] | average weight variation (g) before [1, 9] | solubility in water [2] | in vivo half-life [3] | average percentage body fat variation (g) after [1, 5] | average percentage body fat variation (g) variation [1, 6] | average percentage body fat variation (g) before [1, 7]
1 | C[N+](C)(C)C[C@H](O)CC(=O)[O-].O=C(O)C(O)C(O)C(=O)O [Group A, L-carnitine tartrate] | significant | -5 g | 3.93 g | -2.3 g | 6.23 g | 98.28 g | 103.28 g | – | – | – | – | –
2 | C[N+](C)(C)C[C@H](O)CC(=O)[O-] [L-carnitine] | – | – | – | – | – | – | – | easy to dissolve in water | 8.4 h | – | – | –
3 | O=C(O)CC(O)(C(=O)O)C(O)C(=O)O [Group B, L-hydroxy citric acid] | significant | -5.8 g | – | – | – | 97.32 g | 103.12 g | – | – | 3.81 g | -2.4 g | 6.21 g
